From US20240180855A1, “BIOACTIVE PRODUCTS” (priority 2021, published 2024)
“And” between values parts separate entries of the source, which are not always exact repeats. Equal entries are not always repeated. Where two headings read alike, the source gives them in different places.

How the values were obtained:
[1] = tested on: Wheat seeds (Triticum aestivum L.); experiment: Wheat seed germination on potato dextrose agar after soaking in products (Example 1); type: in vivo; settings: seeds soaked 1 hour; nucleases 100 μg/ml at 37° C., M4 group products 0.5%
Excerpt: Wheat seeds (Triticum aestivum L., healthy, not infected) were washed with water with soap, then without soap. […] Then the seeds (8 pieces) were laid out on potato dextrose agar (https://himedialabs.com/TD/M096.pdf). Treatment with test products.

[2] = tested on: Wheat seeds (Triticum aestivum L.); experiment: Wheat growth under stress conditions (18° C.) after seed soaking (Example 2); type: in vivo; settings: seeds soaked 1 hour at 37° C., 100 μg/ml, cultivation 18° C.; for Root length (cm) / Shoot length (cm): after 5 days
Protocol: The cultivation temperature was 18° C., instead of the required 23° C. The assessment of the state of the plants was carried out after 5 days (table 2).

[3] = tested on: wheat; experiment: Wheat growth after one-time watering with products (Example 7); type: in vivo; set-up: Shoot length / Root length: unit not given here; settings: one-time watering 1000 μg/ml, 200 ml for 20 grains; day 5
[4] = tested on: wheat; experiment: Wheat growth after seed treatment with reverse transcription, integration and protease inhibitors (Example 4); type: in vivo; settings: seeds treated 1 hour at 37° C.; cultivation 23° C.
[5] = tested on: wheat; experiment: Wheat growth after seed treatment with complexes of inhibitors and nucleases (Example 5); type: in vivo; settings: seeds treated 1 hour at 37° C.; cultivation 23° C.
Protocol: Plant: wheat Treatment: The seeds were treated with various products for 1 hour, at 37° C. […] Cultivation temperature 23° C.

[6] = tested on: Fish (Trout) fish eggs contaminated with various pathogens
[7] = tested on: wheat; settings: in vivo
[8] = tested on: Fungi of the Saprolegnia spp.; experiment: Time to inactivation of Saprolegnia fungi (Example 15); type: cell-based; set-up: key: —: No antimicrobial activity
Protocol: Fungi in the amount of 10e8 cells were added to 1.0 ml of a solution of the test substance and after incubation were washed by PBS with centrifugation, resuspended in buffer, and plated on potato agar to assess survival.

[9] = tested on: wheat; experiment: Regulation of wheat development after seed treatment (Example 3); type: in vivo; settings: seeds treated 1 hour at 37° C.; cultivation 23° C.
Protocol: Plant: wheat. Treatment: The wheat seeds were treated with various nucleases or products of the M4 group for 1 hour, at 37° C. […] Cultivation temperature 23° C.

[10] = tested on: Red Turkish Carnation Seeds; experiment: Full cycle of plant growth after seed treatment with nucleases (Example 12); type: in vivo; settings: seeds incubated with 100 μg/ml at 37° C. for 60 minutes
[11] = tested on: patients with seborrheic dermatitis; experiment: Treatment of seborrheic dermatitis (Example 23); type: in vivo, human; settings: excipient alone, regimen not given; assessed within 14 days
Protocol: The efficacy of the drugs was assessed within 14 days, using objective and subjective measures (the prevalence of the disease, the degree of inflammation and infiltration of skin elements, the severity of itching, peeling and crusting). Dermatoscopy was done using the Heine, mini 3000 LED.

[H]/N=C(\N/C(=N/[H])NCCCCCCNC(=N)NC(=N)Nc1ccc(Cl)cc1)Nc1ccc(Cl)cc1 [Chlorhexidine]
Germination (%) at day 5 Day 3 [1]: 54%
Median shoot length (mm) Day 3 [1]: 14.6 mm
Emergence at day 5 [2]: 53%
Root length (cm) [2]: 1.9 cm
Shoot length (cm) [2]: 6.3 cm
Emergence (%) [3]: 50%
Root length [3]: 3.6
Shoot length [3]: 6.9

Nc1nc(NC2CC2)c2ncn([C@H]3C=C[C@@H](CO)C3)c2n1 [Abacavir]
Chlorophyll total [4]: 51.8 mg/g
Emergence (%) [4]: 50%
Root lenght (median) [4]: 11
Shoot length (median) [4]: 13

C[C@H](Cn1cnc2c(N)ncnc21)OCP(=O)(O)O [Tenofovir]
Chlorophyll total [4]: 57.7 mg/g
Emergence (%) [4]: 45%
Root lenght (median) [4]: 9
Shoot length (median) [4]: 14

Cc1nnc(C(=O)NC(C)(C)c2nc(C(=O)NCc3ccc(F)cc3)c(O)c(=O)n2C)o1 [Raltegravir]
Chlorophyll total [5]: 25.9 mg/g
Emergence (%) [5]: 42%
Root lenght [5]: 1.9
Shoot length [5]: 5.7
Chlorophyll total [4]: 56.9 mg/g
Emergence (%) [4]: 60%
Root lenght (median) [4]: 8
Shoot length (median) [4]: 12
Emergence at day 5 [2]: 71%
Root length (cm) [2]: 2.6 cm
Shoot length (cm) [2]: 9.8 cm

Cc1ccnc2c1NC(=O)c1cccnc1N2C1CC1 [Nevirapine]
Chlorophyll total [4]: 52.9 mg/g
Emergence (%) [4]: 25%
Root lenght (median) [4]: 0
Shoot length (median) [4]: 0

CN(C)c1ccc2nc3ccc(=[N+](C)C)cc-3sc2c1 [Methylene blue]
Growth after plating [6]: Lawn

O=P([O-])([O-])O.[Na+].[Na+] [Na2HPO4 (0.01%), Na2HPO4]
Root length (cm) [7]: 7.7 cm and 5.9 cm
Seedling length (cm) [7]: 8.4 cm and 6.1 cm
Time (minutes) to reach 100% inactivation ([8]; 0.005%): —
Time (minutes) to reach 100% inactivation ([8]; 0.01%): —
Time (minutes) to reach 100% inactivation ([8]; 0.05%): —
Time (minutes) to reach 100% inactivation ([8]; 0.1%): —
Time (minutes) to reach 100% inactivation ([8]; 0.5%): —

Trypsin
Chlorophyll total [5]: 30.3 mg/g
Emergence (%) [5]: 49%
Root lenght [5]: 5.8
Shoot length [5]: 2.5

COc1cc2c(cc1Cc1cccc(Cl)c1F)c(=O)c(C(=O)O)cn2[C@H](CO)C(C)C [Elvitegravir]
Emergence at day 5 [2]: 65%
Root length (cm) [2]: 2.6 cm
Shoot length (cm) [2]: 9.9 cm

OC[C@@H](O)[C@@H](O)[C@H](O)[C@H](O)CO [Mannit (0.01%), Mannitol]
Time (minutes) to reach 100% inactivation ([8]; 0.005%): —
Time (minutes) to reach 100% inactivation ([8]; 0.01%): —
Time (minutes) to reach 100% inactivation ([8]; 0.05%): —
Time (minutes) to reach 100% inactivation ([8]; 0.1%): —
Time (minutes) to reach 100% inactivation ([8]; 0.5%): —

DNAse
Chlorophyll total [9]: 49.1
Emergence (%) [9]: 67%
Leaf length (cm) [9]: 2.8 cm
Leaf width (cm) [9]: 1.4 cm
Number of leaves [9]: 2 + 1
Root length (cm) [9]: 15.2 cm
Shoot length (cm) [9]: 5.8 cm
Weight [9]: 0.6 g
Chlorophyll total [5]: 24.7 mg/g
Emergence (%) [5]: 73%
Root lenght [5]: 3.6
Shoot length [5]: 5.2
Germination (%) at day 5 Day 3 [1]: 75%
Median shoot length (mm) Day 3 [1]: 24.6 mm
Emergence at day 5 [2]: 64%
Root length (cm) [2]: 2.1 cm
Shoot length (cm) [2]: 6.9 cm
Emergence (%) [10]: 95%
Height on day 99 [10]: 7+/−1
Root branching at 99 days (words in the root length cell) [10]: branched
Root length at 99 days [10]: 7+/−0.5
The appearance of the first leaves [10]: 5th day
The beginning of flowering [10]: 183 days
The emergence of the buds [10]: 174 days
Weight of seeds on day 258/12 plants [10]: 0.24 g

Cc1cc(C#N)cc(C)c1Oc1nc(Nc2ccc(C#N)cc2)nc(N)c1Br [Etravirine]
Chlorophyll total [5]: 25.0 mg/g
Emergence (%) [5]: 75%
Root lenght [5]: 5.5
Shoot length [5]: 7.4
Chlorophyll total [4]: 58.7 mg/g
Emergence (%) [4]: 55%
Root lenght (median) [4]: 9
Shoot length (median) [4]: 13

Nc1ccn([C@@H]2CS[C@H](CO)O2)c(=O)n1 [Lamivudine]
Chlorophyll total [4]: 54.3 mg/g
Emergence (%) [4]: 55%
Root lenght (median) [4]: 9
Shoot length (median) [4]: 13

CN(C)c1ccc(C(=C2C=CC(=[N+](C)C)C=C2)c2ccccc2)cc1 [Malachite green]
Growth after plating [6]: Lawn

O=S(=O)([O-])[O-].[Zn+2] [ZnSO4 0.01%, ZnSO4]
Day at which prevalence of the symptoms was reduced by 80% [11]: >14 days
Root length (cm) [7]: 5.7 cm and 7.1 cm
Seedling length (cm) [7]: 6.1 cm and 8.0 cm
Time (minutes) to reach 100% inactivation ([8]; 0.005%): —
Time (minutes) to reach 100% inactivation ([8]; 0.01%): —
Time (minutes) to reach 100% inactivation ([8]; 0.05%): —
Time (minutes) to reach 100% inactivation ([8]; 0.1%): —
Time (minutes) to reach 100% inactivation ([8]; 0.5%): —*
